Each structure is given as a SMILES string. Where a name gives a salt, the structure may show the parent alone.

p70S6K (h), sequence (P23443 whole entry): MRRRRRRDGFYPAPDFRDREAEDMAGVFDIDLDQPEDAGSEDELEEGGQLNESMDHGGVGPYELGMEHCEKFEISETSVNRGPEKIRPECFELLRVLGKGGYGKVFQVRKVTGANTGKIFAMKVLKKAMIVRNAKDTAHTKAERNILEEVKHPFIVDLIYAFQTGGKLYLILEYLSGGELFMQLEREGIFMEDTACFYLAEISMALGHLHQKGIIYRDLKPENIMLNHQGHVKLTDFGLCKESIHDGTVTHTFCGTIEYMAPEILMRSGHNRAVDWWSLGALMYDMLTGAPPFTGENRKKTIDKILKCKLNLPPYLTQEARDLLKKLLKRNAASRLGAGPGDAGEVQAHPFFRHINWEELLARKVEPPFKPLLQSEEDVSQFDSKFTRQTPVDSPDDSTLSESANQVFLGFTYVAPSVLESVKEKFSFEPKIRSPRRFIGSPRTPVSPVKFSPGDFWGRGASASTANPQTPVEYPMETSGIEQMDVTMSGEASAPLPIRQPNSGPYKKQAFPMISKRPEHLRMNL

One assay concerns phosphorylation of S6 Ser235/236 in MCF-7 cells. The assay can be described thus: Inhibition of P70S6K activity in whole cells: phospho-S6 ELISA in MCF-7 cells. Type of assay: cell-based. As to conditions: Homo sapiens, MCF7, 2 h incubation, 1% FBS. The procedure:
The following assay provides IC50 values for inhibition of P70S6K activity in a whole cell assay by determining effects on the phosphorylation of S6^Ser235/236 in MCF-7 cells by ELISA.
The following protocol was used: • 1) MCF-7 cells were seeded in 96-well plates at a density of 7×10^3 cells per well and allowed to adhere for 6 h in media containing 10% FBS. • 2) The full serum media was replaced and cells incubated overnight in media containing 1% FBS, prior to addition of test compounds. • 3) Test compounds were prepared from 10 mM or 5 mM (BEZ-235) DMSO stocks to give final concentration ranges as indicated on graphs. DMSO was constant at a final concentration of 1%. • 4) Test compounds were incubated with cells in duplicate for 2 h at 37° C./5% CO2 in a humidified atmosphere. • 5) The media was removed and cells were lysed by freeze-thawing in cell lysis buffer. • 6) Detection of phosphorylated S6Ser235/236 was then carried out using a PathScan ELISA kit (Cell Signaling Technology #7205). • 7) Lysates were diluted 1:1 with sample diluent before being applied to wells coated with an antibody against phosphorylated-S6 protein. • 8) The ELISA was then performed as stated in the manufacturers' instructions. • 9) The raw data were normalised to control values and analysed using a 4-parameter logistic equation in GraphPad Prism.
`CN(Cc1ccccc1)c1cnc2cc(-c3cncnc3)ccc2n1` [Example 43, Benzyl-methyl-(6-pyrimidin-5-yl-quinoxalin-2-yl)-amine] yielded an IC50 of under 20000 nM.

Take `C[C@@H](Nc1cnc2cc(-c3cn[nH]c3)ccc2n1)c1cccc(Cl)c1` [Example 55, [(R)-1-(3-Chloro-phenyl)-ethyl]-[6-(1H-pyrazol-4-yl)-quinoxalin-2-yl]-amine hydrochloride]: the concentration for half-maximal inhibition (IC50) is under 1000 nM. The same measure, in the same setting: under `COc1cccc([C@@H](C)N(C)c2cnc3cc(-c4cn[nH]c4)ccc3n2)c1` [Example 53, [(R)-1-(3-Methoxy-phenyl)-ethyl]-methyl-[6-(1H-pyrazol-4-yl)-quinoxalin-2-yl]-amine hydrochloride] stands under 1000 nM; under `C[C@H](c1cccc(Cl)c1)N(C)c1cnc2cc(-c3cn[nH]c3)ccc2n1` [Example 56, [(R)-1-(3-Chloro-phenyl)-ethyl]-methyl-[6-(1H-pyrazol-4-yl)-quinoxalin-2-yl]-amine], under 5000 nM; under `Cc1cccc([C@@H](C)Nc2cnc3cc(-c4cn[nH]c4)ccc3n2)c1` [Example 58, [6-(1H-Pyrazol-4-yl)-quinoxalin-2-yl]-((R)-1-m-tolyl-ethyl)-amine hydrochloride], under 1000 nM.

Compound `Oc1cccc(CNc2cnc3cc(-c4cn[nH]c4)ccc3n2)c1` [Example 54, 3-{[6-(1H-Pyrazol-4-yl)-quinoxalin-2-ylamino]-methyl}-phenol] returned an IC50 of under 5000 nM.

With `C[C@@H](c1cccc(F)c1)N(C)c1cnc2cc(-c3cn[nH]c3)ccc2n1` [Example 60, [(S)-1-(3-Fluoro-phenyl)-ethyl]-methyl-[6-(1H-pyrazol-4-yl)-quinoxalin-2-yl]-amine], the IC50 was under 20000 nM.

In turn, `C[C@H](c1ccccc1)N(C)c1cnc2cc(-c3cn[nH]c3)ccc2n1` [Example 51, Methyl-((R)-1-phenyl-ethyl)-[6-(1H-pyrazol-4-yl)-quinoxalin-2-yl]-amine] showed an IC50 of under 5000 nM.

A further assay has as its target p70S6K (h) (Homo sapiens, UniProt P23443). Briefly: Determination of p70S6 inhibitory activity (radiometric 33P-ATP filter assay). As to conditions: 40 min at room temperature, read-out: IC50 against P70S6 kinase. Type of assay: biochemical. The procedure: The ability of compounds of the invention to inhibit P70S6 kinase was determined using the protocol below.
• 20 mM MOPS, 1 mM EDTA, 0.01% Brij-35, 5% Glycerol, 0.1% b-mercaptoethanol, 1 mg/mL BSA Method: • p70S6K (h)
In a final reaction volume of 25 μL, p70S6K (h) (5-10 mU) is incubated with 8 mM MOPS pH 7.0, 0.2 mM EDTA, 100 μM KKRNRTLTV, 10 mM Mg acetate and [γ-33P-ATP] (specific activity approx. 500 cpm/pmol, concentration as required). The reaction is initiated by the addition of the MgATP mix. After incubation for 40 minutes at room temperature, the reaction is stopped by the addition of 5 μL of a 3% phosphoric acid solution. 10 μL of the reaction mixture is then spotted onto a P30 filtermat and washed three times for 5 minutes in 75 mM phosphoric acid and once in methanol prior to drying and scintillation counting.
Take `[O-][n+]1nc(NCc2ccccc2)nc2ccc(-c3cn[nH]c3)cc21` [Example 61, Benzyl-[1-oxy-7-(1H-pyrazol-4-yl)-benzo[1,2,4]triazin-3-yl]-amine]: the IC50 is under 1000 nM. Take `CN(Cc1ccccc1)c1nc2ccc(-c3cn[nH]c3)cc2[n+]([O-])n1` [Example 34, Benzyl-methyl-[1-oxy-7-(1H-pyrazol-4-yl)-benzo[1,2,4]triazin-3-yl]-amine]: the IC50 is under 100 nM.

Take `CN(Cc1ccccc1)c1cnc2cc(-c3cncnc3)ccc2n1` [Example 43, Benzyl-methyl-(6-pyrimidin-5-yl-quinoxalin-2-yl)-amine]: the half-maximal inhibitory concentration (IC50) was under 100 nM.

Take `C[C@H](Nc1cnc2cc(-c3cn[nH]c3)ccc2n1)c1ccccc1` [Example 24, ((S)-1-Phenyl-ethyl)-[6-(1H-pyrazol-4-yl)-quinoxalin-2-yl]-amine hydrochloride]: the IC50 is under 5000 nM. The same measure, in the same setting: the figure for `Cc1ccc(CNc2cnc3cc(-c4cn[nH]c4)ccc3n2)cc1` [Example 44, (4-Methyl-benzyl)-[6-(1H-pyrazol-4-yl)-quinoxalin-2-yl]-amine] is under 100 nM.

On to `CN(Cc1ccccc1)c1cnc2cc(-c3ccncc3)ccc2n1` [Example 22, Benzyl-methyl-(6-pyridin-4-yl-quinoxalin-2-yl)-amine], for which the IC50 was under 1000 nM. On the same count and under the same terms, under `FC(F)(F)Oc1cccc(CNc2cnc3cc(-c4cn[nH]c4)ccc3n2)c1` [Example 30, [6-(1H-Pyrazol-4-yl)-quinoxalin-2-yl]-(3-trifluoromethoxy-benzyl)-amine] stands under 1000 nM.

Take `CN(Cc1ccc(F)c(C(F)(F)F)c1)c1cnc2cc(-c3cn[nH]c3)ccc2n1` [Example 29, (4-Fluoro-3-trifluoromethyl-benzyl)-methyl-[6-(1H-pyrazol-4-yl)-quinoxalin-2-yl]-amine]: the IC50 is under 1000 nM. Same read-out and setting: the figure for `C[C@@H](Nc1cnc2cc(-c3cn[nH]c3)ccc2n1)c1cccc(Cl)c1` [Example 55, [(R)-1-(3-Chloro-phenyl)-ethyl]-[6-(1H-pyrazol-4-yl)-quinoxalin-2-yl]-amine hydrochloride] is under 100 nM; for `[O-][n+]1nc(NCc2cccc(Cl)c2)nc2ccc(-c3cn[nH]c3)cc21` [Example 63, (3-Chloro-benzyl)-[1-oxy-7-(1H-pyrazol-4-yl)-benzo[1,2,4]triazin-3-yl]-amine] it is under 1000 nM; for `[O-][n+]1cc(NCc2ccccc2)nc2ccc(-c3cn[nH]c3)cc21` [Example 65C, benzyl-[4-oxy-6-(1H-pyrazol-4-yl)-quinoxalin-2-yl]-amine] it is under 1000 nM. The same measure, in the same setting: the figure for `COc1cccc([C@@H](C)N(C)c2cnc3cc(-c4cn[nH]c4)ccc3n2)c1` [Example 53, [(R)-1-(3-Methoxy-phenyl)-ethyl]-methyl-[6-(1H-pyrazol-4-yl)-quinoxalin-2-yl]-amine hydrochloride] is under 100 nM; for `COc1ccccc1CNc1cnc2cc(-c3cn[nH]c3)ccc2n1` [Example 19, (2-Methoxy-benzyl)-[6-(1H-pyrazol-4-yl)-quinoxalin-2-yl]-amine] it is under 1000 nM; for `CN(Cc1ccccc1Cl)c1cnc2cc(-c3cn[nH]c3)ccc2n1` [Example 45, (2-Chloro-benzyl)-methyl-[6-(1H-pyrazol-4-yl)-quinoxalin-2-yl]-amine hydrochloride] it is under 1000 nM. Still for that read-out and setting: the figure for `CN(Cc1ccccc1)c1nnc2cc(-c3cn[nH]c3)ccc2n1` [Example 35, Benzyl-methyl-[7-(1H-pyrazol-4-yl)-benzo[1,2,4]triazin-3-yl]-amine] is under 100 nM; for `c1cncc(CNc2cnc3cc(-c4cn[nH]c4)ccc3n2)c1` [Example 15, [6-(1H-Pyrazol-4-yl)-quinoxalin-2-yl]-pyridin-3-ylmethyl-amine hydrochloride] it is under 1000 nM. On to `Clc1ccccc1CNc1cnc2cc(-c3cn[nH]c3)ccc2n1` [Example 10, (2-Chloro-benzyl)-[6-(1H-pyrazol-4-yl)-quinoxalin-2-yl]-amine], for which the 50% inhibitory concentration (IC50) is under 1000 nM.

Regarding `Fc1ccc(CNc2cnc3cc(-c4cn[nH]c4)ccc3n2)cc1C(F)(F)F` [Example 20, (4-Fluoro-3-trifluoromethyl-benzyl)-[6-(1H-pyrazol-4-yl)-quinoxalin-2-yl]-amine], the IC50 was under 1000 nM. Same read-out and setting: the figure for `COc1cccc(CNc2nnc3cc(-c4cn[nH]c4)ccc3n2)c1` [Example 37, (3-Methoxy-benzyl)-[7-(1H-pyrazol-4-yl)-benzo[1,2,4]triazin-3-yl]-amine] is under 1000 nM; for `C[C@@H](c1ccccc1)N(C)c1cnc2cc(-c3cn[nH]c3)ccc2n1` [Example 57, Methyl-((S)-1-phenyl-ethyl)-[6-(1H-pyrazol-4-yl)-quinoxalin-2-yl]-amine] it is under 1000 nM; for `[O-][n+]1nc(NCc2ccc(Cl)cc2)nc2ccc(-c3cn[nH]c3)cc21` [Example 62, (4-Chloro-benzyl)-[1-oxy-7-(1H-pyrazol-4-yl)-benzo[1,2,4]triazin-3-yl]-amine] it is under 1000 nM. On the same count and under the same terms, under `CN(Cc1ccccc1)c1cnc2cc(-c3ccncn3)ccc2n1` [Example 23, Benzyl-methyl-(6-pyrimidin-4-yl-quinoxalin-2-yl)-amine] stands under 1000 nM; under `Oc1cccc(CNc2cnc3cc(-c4cn[nH]c4)ccc3n2)c1` [Example 54, 3-{[6-(1H-Pyrazol-4-yl)-quinoxalin-2-ylamino]-methyl}-phenol], under 100 nM. `c1ccc(CNc2cnc3cc(-c4cn[nH]c4)ccc3n2)nc1` [Example 16, [6-(1H-Pyrazol-4-yl)-quinoxalin-2-yl]-pyridin-2-ylmethyl-amine hydrochloride]: the IC50 is under 5000 nM. On to `c1cc(CNc2cnc3cc(-c4cn[nH]c4)ccc3n2)ccn1` [Example 14, [6-(1H-Pyrazol-4-yl)-quinoxalin-2-yl]-pyridin-4-ylmethyl-amine hydrochloride], for which the IC50 was under 5000 nM. With `C[C@@H](c1cccc(F)c1)N(C)c1cnc2cc(-c3cn[nH]c3)ccc2n1` [Example 60, [(S)-1-(3-Fluoro-phenyl)-ethyl]-methyl-[6-(1H-pyrazol-4-yl)-quinoxalin-2-yl]-amine], the IC50 is under 1000 nM.

For the compound `C[C@H](c1ccccc1)N(C)c1cnc2cc(-c3cn[nH]c3)ccc2n1` [Example 51, Methyl-((R)-1-phenyl-ethyl)-[6-(1H-pyrazol-4-yl)-quinoxalin-2-yl]-amine], the IC50 was under 100 nM. The same measure, in the same setting: under `c1ccc2cc(CNc3cnc4cc(-c5cn[nH]c5)ccc4n3)ccc2c1` [Example 39, Naphthalen-2-ylmethyl-[6-(1H-pyrazol-4-yl)-quinoxalin-2-yl]-amine hydrochloride] stands under 1000 nM. Same read-out and setting: the figure for `c1ccc(CNc2nnc3cc(-c4cn[nH]c4)ccc3n2)cc1` [Example 64, Benzyl-[7-(1H-pyrazol-4-yl)-benzo[1,2,4]triazin-3-yl]-amine] is under 1000 nM. On the same count and under the same terms, under `COc1cccc(CNc2nc3ccc(-c4cn[nH]c4)cc3[n+]([O-])n2)c1` [Example 36, (3-Methoxy-benzyl)-[1-oxy-7-(1H-pyrazol-4-yl)-benzo[1,2,4]triazin-3-yl]-amine] stands under 100 nM. On to `CN1CCN(c2cccc(CN(C)c3cnc4cc(-c5cn[nH]c5)ccc4n3)c2)CC1` [Example 48, Methyl-[3-(4-methyl-piperazin-1-yl)-benzyl]-[6-(1H-pyrazol-4-yl)-quinoxalin-2-yl]-amine], for which the IC50 was under 100 nM. On the same count and under the same terms, the figure for `FC(F)(F)c1ccc(CNc2cnc3cc(-c4cn[nH]c4)ccc3n2)cc1` [Example 40, [6-(1H-Pyrazol-4-yl)-quinoxalin-2-yl]-(4-trifluoromethyl-benzyl)-amine] is under 1000 nM.

The values are drawn from US8716473B2, “Substituted benzotriazines and quinoxalines as inhibitors of P7OS6 kinase” (Sentinel Oncology Limited, priority 2009, dated 2014).
